Where “and” joins values, the source holds several entries; their conditions need not be identical. Identical values can stand only once.
How the values were obtained:
Type in all cases: binding, calf
AP-DNA [1] = assay: FARP AP-site assay: screening of MX-like compounds in competition with FARP
Experimental: (§1) 100 μL of 5 μM FARP in phosphate buffer (10 mM, pH 7.0) was added to 200 μL phosphate buffer (10 mM, pH 7.0) containing 10 μg of DNA extracted from cells, individual AP-DNA standard (10, 20, 40, 80, 160, 320, and 640 nM AP), and blank AP-DNA control, respectively. After vortexing, the reaction was allowed to proceed at room temperature for 15 min. At the end of the reaction 200 μL ammonium acetate (7.5M) and 1000 μL ice-cold ethanol (100%) were added. The solution was mixed gently by inverting the tube before keeping it at −20° C. for 30 min. Each tube was centrifuged at 4° C. and 12,000 g for 10 min. The supernatant was poured out carefully so that no loss of FARP-AP-DNA took place. 1200 μL of ice-cold ethanol (70%) was added to each tube to remove the free FARP by centrifugation at 4° C. and 12,000 g for 10 min. This washing step with 70% ice-cold ethanol was repeated two more times. After discarding the supernatant, the FARP-AP-DNA precipitate in the tube was dried at room temperature for 30 min. in a venting hood. The FARP-AP-DNA precipitate was hydrated and resuspended in 200 μL of phosphate buffer (10 mM, pH 9.0) at room temperature for 1 hr. The fluorescence intensity of the resultant FARP-AP-DNA solution was measured by the FluoroMax-2 spectrofluorometer. A calibration curve could be constructed by plotting the fluorescence intensity versus the concentration of AP sites.
One important application of the FARP AP-site assay developed is to screen MX-like compounds for their reactivity to AP site based on known chemical structures. In this work, four compounds with aminooxy or hydrazone group (i.e., MXL1O1, MXLIO2, MXLI 03, and MXL 104) together with MX were tested. The detail experiment included mixing equal concentration and volume of each individual test compound with FARP (50 μM in 100 μL of 10 mM phosphate buffer at pH 7.0) before reacting with 200 µL of 100 nM AP-DNA. The remaining experimental procedures were the same as described in the Experimental section. The data of fluorescence intensity reduced by MX and MX-like compounds were given in Table XI and the fluorescence intensity of the test compounds were compared in FIG. 19.

AP-DNA [2] = assay: Competitive reactions between FARP and MX with AP-DNA; conditions: for Fluorescence Intensity/10^4: 125 nM AP-DNA
Experimental: as §1
Since aminooxy and hydrazone nucleophiles can react with aldehyde group of AP site and form condensation product, it is desirable to know when MX and FARP compete with AP-DNA, which compound has greater reactivity toward AP-DNA. The finding of this experiment will lay the foundation of a screening assay for MX-like compounds.
In the study, the amount of AP-DNA used were 125 nM in 200 μL of 10 mM phosphate buffer at pH 7.0 and the ratios of [FARP]/[MX] were as follows: 50 μM FARP/0 μM, 50.0 μM/5 μM, 50.0 μM/12.5 μM, 50.0 μM/16.7 μM, 50.0 μM/25.0 μM 50.0 μM/22.7 μM, 50.0 μM/25 μM, 50.0 μM/50.0 μM, 50.0 μM/100.0 μM, 50.0 μM/200.0 μM, 50.0 μM/500.0 μM in 100 μL of 10 mM phosphate buffer at pH 7.0. Because MX and FARP were competing for a limited amount of AP-DNA, and only FARP-AP-DNA was fluorescent, the reduced fluorescence intensity reflected the amount of MX binding to the AP sites. […] This is probably due to the molecular size of MX, which allows it to diffuse to faster to the AP-DNA than FARP molecule in aqueous solution.

AP-DNA [3] = assay: Reversibility study of the condensation reaction between FARP / MX and AP-DNA; conditions: for Fluorescence Intensity, FARP Reaction Followed MX Reaction: FARP-AP-DNA incubated with 50 μM MX; for Fluorescence Intensity, MX Replacement Followed by FARP Replacement: MX-AP-DNA incubated with 50 μM FARP
Experimental: It was known that the aldehyde group of an AP site could easily condense with aminooxy or hydrazone nucleophiles. However, the reversibility of the reaction was not clear, especially in the presence of another competing nucleophile. To clarify the above, two experiments were designed and carried out as follows: (a) FARP (50 μM in 100 μL of 10 mM phosphate buffer at pH 7.0) reacted with AP-DNA (125 nM in 200 μL of 10 mM phosphate buffer at pH 7.0) for 1 hr, after washing the condensation product (FARP-AP-DNA) incubated with MX (50 μM in 100 μL of 10 mM phosphate buffer at pH 7.0) for various time periods; and (b) MX (50 μM in 100 μL of 10 mM phosphate buffer at pH 7.0) reacted with AP-DNA (125 nM, 200 μL) for 1 hr, after washing the condensation product (MX-AP-DNA) incubated with FARP (50 μM in 100 μL of 10 mM phosphate buffer at pH 7.0) for various time periods.

AP-DNA [4] = assay: Competitive reactions between FARP and MX with AP-DNA; conditions: [FARP]/[MX] 50.0 μM/20.0 μM, 125 nM AP-DNA
[5] = test compound mixed with FARP at equal concentration and volume (50 μM in 100 μL, pH 7.0), 100 nM AP-DNA

**Q.** `CON` [MX, methoxyamine] was tested. Which “Normalized Fluorescence Intensity %” value (AP-DNA [1]; relative to FARP alone = 100, equal concentration of test compound and FARP, 100 nM AP-DNA) did it give?
**A.** 37.3%

**Q.** What about the “reactivity toward AP-DNA compared with FARP” value (AP-DNA [1]; result in words) of the same molecule?
**A.** higher reactivity than FARP

**Q.** And the “Fluorescence Intensity Individual Measurement” value (AP-DNA [1]; [5])?
**A.** 6543.0 and 6137.0

**Q.** What about the “Fluorescence Intensity Mean” value (AP-DNA [1]; [5]) of the same molecule?
**A.** 6340.0

**Q.** And the “Fluorescence Intensity/10^4” value (AP-DNA [2]; [FARP]/[MX] 50.0 μM/5.0 μM)?
**A.** 8.9453

**Q.** What about the “Fluorescence Intensity/10^4” value (AP-DNA [2]; [FARP]/[MX] 50.0 μM/12.5 μM) of the same molecule?
**A.** 8.3567

**Q.** What about the “Fluorescence Intensity/10^4” value (AP-DNA [2]; [FARP]/[MX] 50.0 μM/16.7 μM) of the same molecule?
**A.** 7.6453

**Q.** And the “Fluorescence Intensity/10^4” value (AP-DNA [2]; [FARP]/[MX] 50.0 μM/22.7 μM)?
**A.** 3.8976

**Q.** And the “Fluorescence Intensity/10^4” value (AP-DNA [2]; [FARP]/[MX] 50.0 μM/25.0 μM)?
**A.** 3.2452

**Q.** What about the “Fluorescence Intensity/10^4” value (AP-DNA [2]; [FARP]/[MX] 50.0 μM/50.0 μM) of the same molecule?
**A.** 2.587

**Q.** What about the “Fluorescence Intensity/10^4” value (AP-DNA [2]; [FARP]/[MX] 50.0 μM/100.0 μM) of the same molecule?
**A.** 2.348

**Q.** And the “Fluorescence Intensity/10^4” value (AP-DNA [2]; [FARP]/[MX] 50.0 μM/200.0 μM)?
**A.** 2.2876

**Q.** What about the “Fluorescence Intensity/10^4” value (AP-DNA [2]; [FARP]/[MX] 50.0 μM/500.0 μM) of the same molecule?
**A.** 2.0896

**Q.** What about the “affinity toward AP-DNA compared with FARP” value (AP-DNA [2]; result in words) of the same molecule?
**A.** greater affinity toward APDNA than that of FARP

**Q.** What about the “Fluorescence Intensity, FARP Reaction Followed MX Reaction” value (AP-DNA [3]; replacement time 10 min) of the same molecule?
**A.** 11,003

**Q.** What about the “Fluorescence Intensity, FARP Reaction Followed MX Reaction” value (AP-DNA [3]; replacement time 20 min) of the same molecule?
**A.** 11,289

**Q.** And the “Fluorescence Intensity, FARP Reaction Followed MX Reaction” value (AP-DNA [3]; replacement time 30 min)?
**A.** 10,759

**Q.** What about the “Fluorescence Intensity, FARP Reaction Followed MX Reaction” value (AP-DNA [3]; replacement time 40 min) of the same molecule?
**A.** 11,193

**Q.** And the “Fluorescence Intensity, FARP Reaction Followed MX Reaction” value (AP-DNA [3]; replacement time 50 min)?
**A.** 11,226

**Q.** And the “Fluorescence Intensity, FARP Reaction Followed MX Reaction” value (AP-DNA [3]; replacement time 60 min)?
**A.** 11,139

**Q.** And the “Fluorescence Intensity, FARP Reaction Followed MX Reaction” value (AP-DNA [3]; replacement time 90 min)?
**A.** 11,112

**Q.** And the “Fluorescence Intensity, FARP Reaction Followed MX Reaction” value (AP-DNA [3]; replacement time 120 min)?
**A.** 11,145

**Q.** And the “Fluorescence Intensity, MX Replacement Followed by FARP Replacement” value (from here on “Fluorescence Intensity … by FARP Replacement”) (AP-DNA [3]; replacement time 10 min)?
**A.** 3,366

**Q.** What about the “Fluorescence Intensity … by FARP Replacement” value (AP-DNA [3]; replacement time 20 min) of the same molecule?
**A.** 3,225

**Q.** And the “Fluorescence Intensity … by FARP Replacement” value (AP-DNA [3]; replacement time 30 min)?
**A.** 3,557

**Q.** What about the “Fluorescence Intensity … by FARP Replacement” value (AP-DNA [3]; replacement time 40 min) of the same molecule?
**A.** 3,410

**Q.** And the “Fluorescence Intensity … by FARP Replacement” value (AP-DNA [3]; replacement time 50 min)?
**A.** 3,321

**Q.** What about the “Fluorescence Intensity … by FARP Replacement” value (AP-DNA [3]; replacement time 60 min) of the same molecule?
**A.** 3,192

**Q.** What about the “Fluorescence Intensity … by FARP Replacement” value (AP-DNA [3]; replacement time 90 min) of the same molecule?
**A.** 3,202

**Q.** What about the “Fluorescence Intensity … by FARP Replacement” value (AP-DNA [3]; replacement time 120 min) of the same molecule?
**A.** 3,081

**Q.** And the “reversibility of the condensation reaction with aldehyde group of AP-DNA” value (AP-DNA [3]; result in words, under the assay conditions)?
**A.** irreversible

**Q.** And the “Fluorescence Intensity/10^4” value (AP-DNA [4])?
**A.** 5.6423
